The subject of the assay is HBV rcDNA. The experiment in a line: HepDE19 assay with bDNA quantitation of HBV rcDNA. The assay is classed as cell-based, hepatitis B virus (HBV). On the procedure: HepDE19 assay with bDNA quantitation of HBV rcDNA:
HepDE19 (50,000 cells/well) were plated in 96-well collagen-coated tissue-culture treated microtiter plates in DMEM/F12 medium supplemented with 10% fetal bovine serum, 1% penicillin-streptomycin and 1 μg/mL tetracycline and incubated in a humidified incubator at 37° C. and 5% CO2 overnight. Next day, the cells were switched to fresh medium without tetracycline and incubated for 4 hours at 37° C. and 5% CO2. […] The final DMSO concentration in the assay was 0.5%. The plates were incubated for 7 days in a humidified incubator at 37° C. and 5% CO2. Following a 7 day-incubation, the level of rcDNA present in the inhibitor-treated wells was measured using a Quantigene 2.0 bDNA assay kit (Affymetrix, Santa Clara, CA) with HBV specific custom probe set and manufacturers instructions. Concurrently, the effect of compounds on cell viability was assessed using replicate plates, plated at a density of 5,000 cells/well and incubated for 4 days, to determine the ATP content as a measure of cell viability using the cell-titer glo reagent (CTG; Promega Corporation, Madison, WI) as per manufacturer's instructions.

Where [1] appears, read: Hepatitis B virus, HepDE19, 168 h, HepDE19 cells, 7 day incubation, rcDNA measured by Quantigene 2.0 bDNA assay, top concentration 25 μM; read-out: DE-19bDNA EC50.
Setting [2] is: HepDE19 cells, 7 day incubation, rcDNA measured by Quantigene 2.0 bDNA assay, top concentration 25 μM; read-out: DE-19bDNA EC50.
[3] abbreviates: read-out: DE-19bDNA EC50; HepDE19 cells, 7 day incubation, rcDNA measured by Quantigene 2.0 bDNA assay, top concentration 25 μM.

Like-named read-outs stand apart in the source and are kept apart here. Bounds are passed on as bounds.

For the compound `CC(c1c[nH]c(=O)c2cc(F)c(F)cc12)N(C)C(=O)c1n[nH]c2ccccc12` (single isomer, unassigned) [Compound 55, N-(1-(6,7-Difluoro-1-oxo-1,2-dihydroisoquinolin-4-yl)ethyl)-N-methyl-2H-indazole-3-carboxamide], the EC50 under setting [1] amounted to 16000 nM. Take `CC(c1c[nH]c(=O)c2cc(F)c(F)cc12)N(C)C(=O)c1n[nH]c2ccccc12` (single isomer, unassigned) [Compound 56, N-(1-(6,7-Difluoro-1-oxo-1,2-dihydroisoquinolin-4-yl)ethyl)-N-methyl-2H-indazole-3-carboxamide]: the half-maximal effective concentration (EC50) under setting [2] is not below 25000 nM. Consider `CC(c1c[nH]c(=O)c2c(F)c(F)ccc12)N(C)C(=O)c1cc2c([nH]1)CCC2` (single isomer, unassigned) [Compound 57, N-(1-(7,8-Difluoro-1-oxo-1,2-dihydroisoquinolin-4-yl)ethyl)-N-methyl-1,4,5,6-tetrahydrocyclopenta[b]pyrrole-2-carboxamide], for which the EC50 under setting [2] worked out at 12000 nM. For `CC(c1c[nH]c(=O)c2c(F)c(F)ccc12)N(C)C(=O)c1cc2c([nH]1)CCC2` (single isomer, unassigned) [Compound 58, N-(1-(7,8-Difluoro-1-oxo-1,2-dihydroisoquinolin-4-yl)ethyl)-N-methyl-1,4,5,6-tetrahydrocyclopenta[b]pyrrole-2-carboxamide], under setting [2], the concentration giving a half-maximal response (EC50) is 1800 nM. With `CC(c1c[nH]c(=O)c2cc(F)c(F)cc12)N(C)C(=O)c1cc2ccccn2c1` (single isomer, unassigned) [Compound 69, N-(1-(6,7-Difluoro-1-oxo-1,2-dihydroisoquinolin-4-yl)ethyl)-N-methylindolizine-2-carboxamide], under setting [3], the EC50 was 5700 nM.

As to `CC(c1c[nH]c(=O)c2cc(F)c(F)cc12)N(C)C(=O)c1cc2ccccn2c1` (single isomer, unassigned) [Compound 70, N-(1-(6,7-Difluoro-1-oxo-1,2-dihydroisoquinolin-4-yl)ethyl)-N-methylindolizine-2-carboxamide], the half-maximal effective concentration (EC50) under setting [1] worked out at 20 nM.

Regarding `CC(c1c[nH]c(=O)c2c(F)c(F)ccc12)N(C)C(=O)c1cc2ccccn2c1` (single isomer, unassigned) [Compound 71, N-(1-(7,8-Difluoro-1-oxo-1,2-dihydroisoquinolin-4-yl)ethyl)-N-methylindolizine-2-carboxamide], under setting [3], the half-maximal effective concentration (EC50) was determined as 6500 nM. `CC(c1c[nH]c(=O)c2c(F)c(F)ccc12)N(C)C(=O)c1cc2ccccn2c1` (single isomer, unassigned) [Compound 72, N-(1-(7,8-Difluoro-1-oxo-1,2-dihydroisoquinolin-4-yl)ethyl)-N-methylindolizine-2-carboxamide]: the EC50 under setting [3] was 140 nM. With `CC(c1c[nH]c(=O)c2cc(F)c(F)cc12)N(C)C(=O)c1cc2c(Cl)cccn2c1` (single isomer, unassigned) [Compound 77, 8-Chloro-N-(1-(6,7-difluoro-1-oxo-1,2-dihydroisoquinolin-4-yl)ethyl)-N-methylindolizine-2-carboxamide], the EC50 under setting [2] is 2000 nM.

Turning to `CC(c1c[nH]c(=O)c2cc(F)c(F)cc12)N(C)C(=O)c1cc2c(Cl)cccn2c1` (single isomer, unassigned) [Compound 78, 8-Chloro-N-(1-(6,7-difluoro-1-oxo-1,2-dihydroisoquinolin-4-yl)ethyl)-N-methylindolizine-2-carboxamide], under setting [2], the 50% effective concentration (EC50) came out at 10 nM. As for `CC(c1c[nH]c(=O)c2cc(F)c(F)cc12)N(C)C(=O)c1cc2c(F)cccn2c1` (single isomer, unassigned) [Compound 79, N-(1-(6,7-Difluoro-1-oxo-1,2-dihydroisoquinolin-4-yl)ethyl)-8-fluoro-N-methylindolizine-2-carboxamide], under setting [2], the EC50 was 3300 nM. For the compound `CC(c1c[nH]c(=O)c2cc(F)c(F)cc12)N(C)C(=O)c1cc2c(F)cccn2c1` (single isomer, unassigned) [Compound 80, N-(1-(6,7-Difluoro-1-oxo-1,2-dihydroisoquinolin-4-yl)ethyl)-8-fluoro-N-methylindolizine-2-carboxamide], the concentration for a half-maximal effect (EC50) under setting [2] was 20 nM. On the same count and under the same terms, the value for `CC(c1c[nH]c(=O)c2c(F)c(F)ccc12)N(C)C(=O)c1cc2c(F)cccn2c1` (single isomer, unassigned) [Compound 81, N-(1-(7,8-Difluoro-1-oxo-1,2-dihydroisoquinolin-4-yl)ethyl)-8-fluoro-N-methylindolizine-2-carboxamide] was 2100 nM. Still for that read-out and setting: the value for `CC(c1c[nH]c(=O)c2c(F)c(F)ccc12)N(C)C(=O)c1cc2c(F)cccn2c1` (single isomer, unassigned) [Compound 82, N-(1-(7,8-Difluoro-1-oxo-1,2-dihydroisoquinolin-4-yl)ethyl)-8-fluoro-N-methylindolizine-2-carboxamide] was 70 nM. `CC(c1c[nH]c(=O)c2cc(F)c(F)cc12)N(CCCO)C(=O)Cc1cc2ccccc2[nH]1` (single isomer, unassigned) [Compound 83, N-(1-(6,7-Difluoro-1-oxo-1,2-dihydroisoquinolin-4-yl)ethyl)-N-(3-hydroxypropyl)-2-(1H-indol-2-yl)acetamide]: the half-maximal effective concentration (EC50) under setting [3] was not below 25000 nM. With `CC(c1c[nH]c(=O)c2cc(F)c(F)cc12)N(CCCO)C(=O)Cc1cc2ccccc2[nH]1` (single isomer, unassigned) [Compound 84, N-(1-(6,7-Difluoro-1-oxo-1,2-dihydroisoquinolin-4-yl)ethyl)-N-(3-hydroxypropyl)-2-(1H-indol-2-yl)acetamide], under setting [3], the concentration for a half-maximal effect (EC50) was found to be 420 nM. Take `CC(c1c[nH]c(=O)c2cc(F)c(F)cc12)N(C)C(=O)c1cc2c([nH]1)CCC(F)(F)C2` (single isomer, unassigned) [Compound 88, N-(1-(6,7-Difluoro-1-oxo-1,2-dihydroisoquinolin-4-yl)ethyl)-5,5-difluoro-N-methyl-4,5,6,7-tetrahydro-1H-indole-2-carboxamide]: the EC50 under setting [2] came to 30 nM. For `CC(c1c[nH]c(=O)c2cc(F)c(F)cc12)N(C)C(=O)c1cc2c([nH]1)CCC(F)(F)C2` (single isomer, unassigned) [Compound 89, N-(1-(6,7-Difluoro-1-oxo-1,2-dihydroisoquinolin-4-yl)ethyl)-5,5-difluoro-N-methyl-4,5,6,7-tetrahydro-1H-indole-2-carboxamide], the concentration for a half-maximal effect (EC50) under setting [2] was 1800 nM.

As to `CC(c1c[nH]c(=O)c2c(F)c(F)ccc12)N(C)C(=O)c1cc2c([nH]1)CCC(F)(F)C2` (single isomer, unassigned) [Compound 90, N-(1-(7,8-Difluoro-1-oxo-1,2-dihydroisoquinolin-4-yl)ethyl)-5,5-difluoro-N-methyl-4,5,6,7-tetrahydro-1H-indole-2-carboxamide], the concentration for a half-maximal effect (EC50) under setting [2] worked out at 370 nM. `CC(c1c[nH]c(=O)c2c(F)c(F)ccc12)N(C)C(=O)c1cc2c([nH]1)CCC(F)(F)C2` (single isomer, unassigned) [Compound 91, N-(1-(7,8-Difluoro-1-oxo-1,2-dihydroisoquinolin-4-yl)ethyl)-5,5-difluoro-N-methyl-4,5,6,7-tetrahydro-1H-indole-2-carboxamide]: the half-maximal effective concentration (EC50) under setting [2] turned out to be 7300 nM. Turning to `CC(c1c[nH]c(=O)c2c(F)c(F)ccc12)N(C)C(=O)c1cc2c(Cl)cccn2c1` (single isomer, unassigned) [Compound 92, 8-Chloro-N-(1-(7,8-difluoro-1-oxo-1,2-dihydroisoquinolin-4-yl)ethyl)-N-methylindolizine-2-carboxamide], the 50% effective concentration (EC50) under setting [2] is 2700 nM.

The term EC50 denotes the midpoint of the concentration-response curve.

These data come from patent US20230295115A1, “SUBSTITUTED ISOQUINOLINYLMETHYL AMIDES, ANALOGUES THEREOF, AND METHODS USING SAME” (priority 2020, published 2023).
